# Source: patent US20130274246A1, “Therapeutic Treatment for Metabolic Syndrome, Type 2 Diabetes, Obesity, or Prediabetes” (priority 2010, published 2013)
# Assays:
# Type in all cases: in vivo
# [1] = system: male mice fed a high fat diet; assay: GBR versus bupropion in high fat diet mice (Example 11)
# Protocol: The effect of increasing central dopamine neuronal activity versus increasing central dopamine plus norepinephirne neuronal activity on body fat, blood glucose, plasma insulin, and insulin sensitivity was studied in male mice fed a high fat diet from 4 weeks of age until 24 weeks of age. These mice were maintained on this high fat diet while treated with either GBR (20 mg/kg) (a selective dopamine reuptake inhibitor) or bupropion (20 mg/kg) (a dopamine and norepinpehrine reuptake inhibitor) at doses that approximate their 50% maximal effective dose for these functions in vivo in rodents.
# [2] = system: female mice fed a high fat diet for 20 weeks; assay: GBR 12909 and FA, alone and combined, 14 days in high fat diet mice (Example 9); settings: GBR 12909 10 mg/kg, FA 15 mg/kg, FIG. 11
# Protocol: Female mice at 4 weeks of age were fed a high fat diet for 20 weeks to induce diabetes and insulin resistance and continued on such diet while treated for 14 days with either GBR 12909 (10 mg/kg), FA (15 mg/kg), GBR 12909 (10 mg/kg) plus FA (15 mg/kg), or vehicle and sacrified after 14 days of treatment for the analyses of body fat, blood glucose, plasma insulin, and plasma nitric oxide levels. The composite of body fat store level, blood glucose and plasma insulin was reduced the greatest in the GBR/FA group and by a magnitude more than additive of the individual GBR and FA groups combined. Only the GBR/FA group normalized plasma insulin levels. […] This effect was not observed with either GBR or FA treatments alone. Also, there was no desensitization to this dopamine enhancing treatment on this body weight reduction effect as is observed with dopamine D2 receptor agonists (FIG. 15).
# [3] = system: high fat fed, hypertensive SHR rats; assay: Quinelorane and fusaric acid, alone and combined, in high fat fed hypertensive SHR rats (Example 5); settings: SHR rats on high fat diet, Q 0.075 mg/kg, FA 12.5 mg/kg
# Protocol: Male SHR rats were maintained on 14 hour daily photoperiods and fed a high fat diet (60% of energy from fat; 5.24 kcal/gram weight) for 3 weeks and then divided into different groups and treated with either quinelorane (Q; a dopamine D2/D3 mixed receptor agonist) (0.075 mg/kg), fusaric acid (FA; a dopamine beta hydroxylase inhibitor) (12.5 mg/kg), quinelorane (0.075 mg/kg) plus FA (Q/FA) (12.5 mg/kg), or vehicle at 13 hours after light onset for 17 days. The doses of Q and FA were set at less than half maximal to effect central dopamine receptor binding functions and dopamine beta hydroxylase activity, respectively. […] Blood pressure measurements were taken at 14 days of treatment and animals were sacrificed at 18 days of treatment for analyses of body fat and humoral factors and metabolites. […] Respecting blood glucose, although both Q and FA reduced glucose level relative to vehicle, only the Q/FA regimen normalized blood glucose in these animals relative to vehicle (FIG. 6).
# [4] = system: obese, diabetic female ob/ob mice; assay: Fusaric acid and SKF 38393, alone and combined, 14 days in ob/ob mice (Example 4); settings: fusaric acid 15 mg/kg, SKF 38393 10 mg/kg, once daily 14 days, day 15, controls 380+/−30
# Protocol: Fusaric acid is a dopamine beta hydroxylase inhibitor that reduces noradrenaline synthesis in noradrenergic neurons. It is not present in dopaminergic neurons and thus exerts no such effect there. SKF38393 is a post-synaptic dopamine D1 receptor agonist with no marked influence on noradrenergic neurons. A study was conducted to determine the interactive effects of fusaric acid plus SKF 38393 on body fat store levels, and blood glucose and plasma triglyceride levels in ob/ob mice. The ob/ob mouse is hyperphagic, obese, insulin resistant, diabeteic and dyslipidemic due to the absence of functional leptin as a result of a mutation in this gene.
# Obese, diabetic female ob/ob mice (body weight of approximately 33 g) maintained on 14 hour daily photoperiods, housed one per cage and allowed to feed ad libitum were randomized to once daily treatment with either fusaric acid (15 mg/kg; n=6-8), SKF 38393 (10 mg/kg; n=6-8), both fusaric acid (15 mg/kg) and SKF 38393 (10 mg/kg) (n=6-8), or vehicle (control group; n=6-8) for a 14 day period. On the fifteenth day of the study and approximately 24 hours after the final treatment animals were sacrificed and blood samples were obtained for the analyses of blood glucose, plasma free fatty acid and triglyceride levels. […]
compound,measurement,setting,value
"Cl.Cl.Fc1ccc(C(OCCN2CCN(CCCc3ccccc3)CC2)c2ccc(F)cc2)cc1 [GBR 12909, 1-(2-[bis(4-Fluorophenyl)methoxy]ethyl)-4-(3-phenylpropyl)piperazine dihydrochloride]",reducing plasma insulin,"[1]; GBR 20 mg/kg versus bupropion 20 mg/kg, equal dose",much more effective
same,body fat,"[1]; GBR 20 mg/kg, compared to vehicle and bupropion 20 mg/kg, FIG. 17",significantly reduced
same,blood glucose level,[2],no significant effect
CCCN1CCC[C@@H]2Cc3nc(N)ncc3C[C@H]21 [Q],change from baseline body weight (weight loss),"[3]; at 13 hours after light onset for 17 days, FIGS. 1 and 2",regained weight loss to baseline values by treatment end
"Cl.Oc1cc2c(cc1O)C(c1ccccc1)CNCC2 (stereo not drawn) [SKF 38393, 1-phenyl-7,8-dihydroxy-2,3,4,5-tetrahydro-1H-3-benzazepine hydrochloride]",blood glucose,[4],290 ± 55 mg/dL
"CCCCc1ccc(C(=O)O)nc1 [fusaric acid, 5-butyl-2-pyridinecarboxylic acid]",plasma C-reactive protein levels,"[3]; 17 days, relative to vehicle",no significant effect
